What all share (format): functional
Assay [1] is described as follows: (§1) Cytotoxicity against human OVCAR5 cells assessed as growth inhibition at 10 uM after 48 hrs by SRB assay. As to conditions: OVCAR-5, 48 h, read-out: GI.
A further assay has as its system SK-OV-3. In words: Cytotoxicity against human SKOV3 cells assessed as growth inhibition at 10 uM after 48 hrs by SRB assay. Background: The SRB assay estimates cell density from bound dye.
The nature of assay [2]: Cytotoxicity against human SNB75 cells after 48 hrs by SRB assay. The settings on record: SNB-75, 48 h; for CC50: read-out: LC50 (the source's name).
Assay [3] in a line: Cytotoxicity against human LOXIMVI cells after 48 hrs by SRB assay. As to conditions: LOX IMVI.
Assay [4] can be described thus: Cytotoxicity against human RPMI8226 cells after 48 hrs by SRB assay. As to conditions: RPMI-8226, 48 h.
The nature of assay [5]: Cytotoxicity against human HCC2998 cells after 48 hrs by SRB assay. The settings on record: HCC 2998, 48 h.
Another assay relates to IGROV-1. In words: Cytotoxicity against human IGROV1 cells assessed as growth inhibition at 10 uM after 48 hrs by SRB assay.
The subject of a further assay is MDA-MB-468. In words: Cytotoxicity against human MDA-MB-468 cells after 48 hrs by SRB assay. The settings on record: MDA-MB-468, 48 h.
The test system of another assay is U-251. The assay is described as follows: Cytotoxicity against human U251 cells after 48 hrs by SRB assay. As to conditions: U-251, 48 h.
The next assay has as its system HT-29. In words: Cytotoxicity against human HT-29 cells after 48 hrs by SRB assay. As to conditions: HT-29, 48 h.
The nature of assay [6]: Cytotoxicity against human UO31 cells after 48 hrs by SRB assay. As to conditions: UO-31, 48 h.
Assay [7] can be described thus: Cytotoxicity against human DU145 cells after 48 hrs by SRB assay. The settings on record: DU-145, 48 h.
Another assay relates to Hs-578T. In words: Cytotoxicity against human Hs578T cells assessed as growth inhibition at 10 uM after 48 hrs by SRB assay.
Another assay deals with SN12C. The assay is described as follows: Cytotoxicity against human SN12C cells after 48 hrs by SRB assay.
Assay [8] in a line: Cytotoxicity against human SF539 cells after 48 hrs by SRB assay. The settings on record: SF-539, 48 h.
Another assay concerns Malme-3M. In words: Cytotoxicity against human MALME-3M cells after 48 hrs by SRB assay.
In a further assay the test system is K562. The assay is described as follows: Cytotoxicity against human K562 cells after 48 hrs by SRB assay. As to conditions: K562, 48 h.
Another assay deals with OVCAR-5. Described as §1.
Another assay deals with SK-MEL-2. In words: Cytotoxicity against human SK-MEL-2 cells assessed as growth inhibition at 10 uM after 48 hrs by SRB assay. As to conditions: SK-MEL-2, 48 h, read-out: GI.
For a further assay, the system named is RXF 393. In words: Cytotoxicity against human RXF393 cells assessed as growth inhibition at 10 uM after 48 hrs by SRB assay.
A further assay deals with SF-295. In words: Cytotoxicity against human SF295 cells assessed as growth inhibition at 10 uM after 48 hrs by SRB assay.
For another assay, the system named is HCC 2998. In words: Cytotoxicity against human HCC2998 cells assessed as growth inhibition at 10 uM after 48 hrs by SRB assay.
The next assay concerns HOP-92. In words: Cytotoxicity against human HOP92 cells assessed as growth inhibition at 10 uM after 48 hrs by SRB assay.
The next assay deals with HL-60(TB). The assay is described as follows: Cytotoxicity against human HL-60(TB) cells assessed as growth inhibition at 10 uM after 48 hrs by SRB assay.

Calls of active or inactive are those of the source. The calls are words filed in the database; no cut-off is given here.

Take `C=C1CC[C@@H]2[C@](C)(COC(C)=O)[C@H](OC(C)=O)CC[C@@]2(C)[C@@H]1C/C=C1/C(=O)OC[C@H]1OC(C)=O`: the inhibition of growth at 10 µM in assay [1] was found to be 46.3%. Further, the “growth inhibition (GI)” value in the assay on SK-OV-3, in the assay on IGROV-1 and in the assay on Hs-578T was “inactive” in each case. Also, the GI50 (in general, the concentration at which growth is held to half of that of the control) amounted to 2.83 µM in [2]; 1.42 µM in [3]; 2.07 µM in [4]; 12.2 µM in [5]; 2.04 µM in the assay with MDA-MB-468; 6.09 µM with U-251. The GI50 worked out at 2.58 µM in the assay on HT-29; 1.91 µM in [6]; 4.47 µM in [7]; 3.07 µM in the assay with SN12C; 1.7 µM in assay [8]; 2.97 µM with Malme-3M. The same compound yielded a concentration for 50% growth inhibition (GI50) in the assay on K562 of 2.63 µM. Also, the concentration for total growth inhibition (TGI) – broadly, the concentration giving total growth inhibition – in assay [2] stood at 14.2 µM; in assay [3], 2.85 µM; in [4], 7.68 µM; in assay [5] it was 27.3 µM; in the assay with MDA-MB-468, 5.69 µM; in the assay with U-251, 19.3 µM. Besides, the TGI in assay [6] is 3.89 µM; in assay [7] it was 14.7 µM; in the assay on SN12C, 13.3 µM; in [8], 3.22 µM; in the assay with Malme-3M it was 7.95 µM; in the assay on K562 it was 32.1 µM. Besides, the CC50 in assay [2] is 37.6 µM. The 50% lethal concentration (LC50) (as a rule, the concentration that kills 50% of the test population) in [3] was 5.73 µM; in assay [4], over 100 µM; in [5], 61.2 µM; with MDA-MB-468 it was 74.4 µM; with HT-29 it was over 100 µM; in assay [8], 6.08 µM. The same compound displayed a median lethal concentration (LC50) in the assay on Malme-3M of 29.9 µM. The same compound had an LC50 (concentration giving 50% net cell kill) in the assay with U-251 of 48.6 µM. Also, the LC50 (concentration killing 50% of cells) was 7.92 µM in [6], 38.4 µM in assay [7] and 72 µM in the assay on SN12C. The compound also registered an LC50 (50% lethal concentration) with K562 of over 100 µM.

For `C=C1CC[C@@H]2[C@](C)(COC(C)=O)[C@H](OC(C)=O)CC[C@@]2(C)[C@@H]1CC(NC1CCCC1)C1=CCOC1=O` (stereo partly drawn), the “growth inhibition (GI)” value in the assay on OVCAR-5 is “inactive”. Besides, in the assay on SK-MEL-2, the inhibition of growth at 10 µM is 14.9%.

`C=C1CC[C@@H]2[C@](C)(COC(C)=O)[C@H](OC(C)=O)CC[C@@]2(C)[C@@H]1CC(NCCCC)C1=CCOC1=O` (mixture of isomers): the inhibition of growth at 10 µM in [1] was 4.96%. For the same compound, the “growth inhibition (GI)” value with RXF 393 was “inactive”.

In the case of `C=C1CC[C@@H]2[C@](C)(COC(C)=O)[C@H](OC(C)=O)CC[C@@]2(C)[C@@H]1CC(NCCCCCCCC)C1=CCOC1=O` (mixture of isomers), the inhibition of growth at 10 µM in assay [1] was 6.77%.

With `C=C1CC[C@@H]2[C@](C)(COC(C)=O)[C@H](OC(C)=O)CC[C@@]2(C)[C@@H]1CC(NCc1cccc(Cl)c1)C1=CCOC1=O` (mixture of isomers), the figures for the inhibition of growth at 10 µM (in [1]; in the assay on SK-MEL-2) were 0.31% and 32%, respectively.

As for `C=C1CC[C@@H]2[C@](C)(COC(C)=O)[C@H](OC(C)=O)CC[C@@]2(C)[C@@H]1CC(NCc1ccc(F)cc1)C1=CCOC1=O` (mixture of isomers), the inhibition of growth at 10 µM was 1% in assay [1] and 26.8% in the assay with SK-MEL-2.

With `C=C1CC[C@@H]2[C@](C)(COC(C)=O)[C@H](OC(C)=O)CC[C@@]2(C)[C@@H]1CC(NCc1ccccc1)C1=CCOC1=O` (mixture of isomers), the “growth inhibition (GI)” value in the assay on OVCAR-5 was “inactive”.

`C=C1CC[C@@H]2[C@](C)(COC(C)=O)[C@H](OC(C)=O)CC[C@@]2(C)[C@@H]1CC(Nc1ccc(S(=O)(=O)NC(C)=O)cc1)C1=CCOC1=O` (mixture of isomers): the GI50 in [2] amounted to 3.08 µM; in [3], 1.25 µM; in [4] it was 1.84 µM; in [5] it was 7.51 µM; in the assay with MDA-MB-468, 1.53 µM; in the assay on U-251, 3.49 µM. For the same compound, the GI50 in the assay on HT-29 was determined as 1.57 µM; in assay [6], 3.71 µM; in assay [7], 2.8 µM; with SN12C, 1.78 µM; in assay [8], 2.39 µM; with K562, 2.58 µM. For the same compound, the TGI is 12.7 µM in assay [2]; 2.42 µM in assay [3]; 6.53 µM in assay [4]; 17.3 µM in [5]; 3.13 µM in the assay on MDA-MB-468; 12 µM with U-251. Further, the total growth inhibition concentration (TGI) with HT-29 was 3.55 µM; in assay [6] it was 13.2 µM; in assay [7] it was 9.74 µM; in the assay with SN12C, 5.4 µM; in [8], 7.77 µM; in the assay on K562, 17.6 µM. In addition, the CC50 in [2] is 30.9 µM. In addition, the LC50 in assay [3] was 4.67 µM; in [4], over 75 µM; in assay [5] it was 40.1 µM; in the assay with MDA-MB-468, 6.39 µM; with HT-29 it was 17.9 µM; in assay [8], 26.9 µM. The same compound gave an LC50 (concentration giving 50% net cell kill) in the assay on U-251 of 30.8 µM. Besides, the LC50 (concentration killing 50% of cells) in [6] was found to be 31.7 µM; in [7], 27 µM; in the assay with SN12C, 39.2 µM. The same compound registered an LC50 (50% lethal concentration) with K562 of over 75 µM.

In the case of `C=C1CC[C@@H]2[C@](C)(COC(C)=O)[C@H](OC(C)=O)CC[C@@]2(C)[C@@H]1CC(Sc1ccccc1)C1=CCOC1=O` (mixture of isomers), the GI50 in assay [2] is 1.3 µM; in [3], 0.29 µM; in assay [4], 0.34 µM; in [5], 2.1 µM; with MDA-MB-468, 1.41 µM; with U-251, 1.56 µM. For the same compound, the GI50 with HT-29 is 1.77 µM; in assay [6], 1.2 µM; in [7], 1.41 µM; with SN12C, 2.1 µM; in the assay with Malme-3M it was 1.74 µM; in the assay on K562, 0.69 µM. In addition, the total growth inhibition concentration (TGI) in assay [2] was 2.9 µM; in assay [3] it was 1.19 µM; in assay [4], 2.73 µM; in [5], 4.08 µM; with MDA-MB-468 it was 3.26 µM; in the assay with U-251, 2.96 µM. Moreover, the TGI stood at 3.77 µM in the assay on HT-29; 2.53 µM in assay [6]; 2.74 µM in [7]; 7.07 µM with SN12C; 3.63 µM with Malme-3M; 3.69 µM with K562. For the same compound, the CC50 in [2] amounted to 6.47 µM. Moreover, the LC50 in [3] was 3.97 µM; in [4], over 100 µM; in assay [5] it was 7.89 µM; in the assay with MDA-MB-468 it was 7.53 µM; in the assay on HT-29, 8.03 µM; in the assay with Malme-3M, 7.59 µM. The LC50 (concentration giving 50% net cell kill) in the assay with U-251 is 5.62 µM. The values for the LC50 (concentration killing 50% of cells) (in assay [6]; in assay [7]; in the assay with SN12C) were 5.33 µM, 5.33 µM and over 100 µM, respectively. The same compound registered an LC50 (50% lethal concentration) with K562 of 45.7 µM.

On to `C=C1CC[C@@H]2[C@](C)(CO)[C@H](O)CC[C@@]2(C)[C@@H]1C/C=C1/C(=O)OC[C@H]1O` [ANDROGRAPHOLIDE], for which the “growth inhibition (GI)” value in the assay with OVCAR-5, in the assay on SK-OV-3, with SF-295, in the assay on IGROV-1, in the assay with HCC 2998 and with RXF 393 was “inactive” throughout. The “growth inhibition (GI)” value in the assay with HOP-92, with Hs-578T and in the assay with HL-60(TB) was “inactive” throughout.

(Values after ChEMBL document CHEMBL3734705, “Synthesis and in vitro cytotoxicity of novel C-12 substituted-14-deoxy-andrographolide derivatives as potent anti-cancer agents” (2015).)
